In this assay the target is T1, Avian myoblastosis virus polyprotein II (Avian myeloblastosis virus) (UniProt Q86831).
T1 sequence (whole entry): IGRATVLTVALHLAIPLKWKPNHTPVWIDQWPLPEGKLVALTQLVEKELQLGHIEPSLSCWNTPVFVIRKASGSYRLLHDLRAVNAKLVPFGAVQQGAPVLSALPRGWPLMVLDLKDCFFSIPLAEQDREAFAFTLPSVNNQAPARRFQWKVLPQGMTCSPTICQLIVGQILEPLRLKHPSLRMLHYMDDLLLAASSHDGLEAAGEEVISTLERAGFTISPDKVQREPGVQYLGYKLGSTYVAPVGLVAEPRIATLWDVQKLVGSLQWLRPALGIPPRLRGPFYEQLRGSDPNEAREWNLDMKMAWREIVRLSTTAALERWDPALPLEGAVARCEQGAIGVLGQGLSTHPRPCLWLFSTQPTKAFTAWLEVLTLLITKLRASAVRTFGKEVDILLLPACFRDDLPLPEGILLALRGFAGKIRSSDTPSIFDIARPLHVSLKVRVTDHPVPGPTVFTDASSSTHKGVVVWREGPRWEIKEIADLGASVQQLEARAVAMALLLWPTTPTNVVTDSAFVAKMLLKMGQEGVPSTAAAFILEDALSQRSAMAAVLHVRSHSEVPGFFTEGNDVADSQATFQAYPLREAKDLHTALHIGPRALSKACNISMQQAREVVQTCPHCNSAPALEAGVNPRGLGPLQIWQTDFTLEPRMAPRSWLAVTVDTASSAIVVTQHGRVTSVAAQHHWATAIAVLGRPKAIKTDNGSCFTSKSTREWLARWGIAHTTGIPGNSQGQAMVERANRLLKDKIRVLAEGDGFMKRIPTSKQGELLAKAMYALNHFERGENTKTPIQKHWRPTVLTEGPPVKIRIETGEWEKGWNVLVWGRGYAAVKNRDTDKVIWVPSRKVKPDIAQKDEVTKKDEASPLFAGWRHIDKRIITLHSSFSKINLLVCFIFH
Description: Inhibition of Avian myeloblastosis virus reverse transcriptase. Conditions: concentration not given here. Also noted: concentration or dose not given beside the values.
As usually defined, the inhibition is the drop in the measured response relative to a control, in per cent. `COc1ccc(-c2cc(=O)c3c(OC)cc(OC)cc3o2)cc1` returned an inhibition of 45.6%.

In turn, `O=c1c(O)c(-c2ccc(O)c(O)c2)oc2cc(O)c(O)c(O)c12` gave an inhibition of 98.4%.

`COc1cc2oc(-c3ccccc3)cc(=O)c2c(O)c1OC`: the inhibition amounted to 45.9%. The compound `COc1cc2oc(-c3ccc(O)c(O)c3)cc(=O)c2c(O)c1O` yielded an inhibition of 91.4%. The value for `O=c1cc(-c2ccc(O)cc2)oc2c(O)c(O)cc(O)c12` was 22%; that for `COc1cc(O)c2c(=O)cc(-c3ccccc3OC(C)=O)oc2c1OC` was 17%; that for `COc1cc(O)c2c(=O)c(O)c(-c3ccc(OC)c(O)c3)oc2c1` was 68.1%. `O=c1c(O)c(-c2cc(O)c(O)c(O)c2)oc2cc(O)cc(O)c12` yielded an inhibition of 82.5%.

The compound `CC(C)Oc1ccc(-c2cc(=O)c3c(O)cc(O)cc3o2)cc1OC(C)C` came in with an inhibition of 12.2%. Consider `CC(C)Oc1ccc(-c2cc(=O)c3c(O)cc(OC(C)C)cc3o2)cc1`, for which the inhibition is 23.6%. `CC(C)Oc1ccc(-c2cc(=O)c3c(O)cc(O)cc3o2)cc1` showed an inhibition of 55.4%. The compound `COc1c(OC(C)=O)cc2oc(-c3ccccc3)cc(=O)c2c1O` registered an inhibition of 18.3%. In the case of `CC(C)Oc1ccc(-c2cc(=O)c3c(O)cc(O)c(O)c3o2)cc1OC(C)C`, the inhibition came out at 17.6%. Compound `COc1ccc(-c2cc(=O)c3c(O)cc(OC(C)C)c(OC)c3o2)cc1` yielded an inhibition of 12%. `CC(C)Oc1cc(OC(C)C)c2c(=O)cc(-c3ccccc3)oc2c1` came in with an inhibition of 24.2%. The value for `O=c1cc(-c2ccc(O)cc2)oc2cc(O)c(O)c(O)c12` was 99.4%; that for `COc1c(O)cc(O)c2c(=O)cc(-c3ccccc3O)oc12` was 8.5%. In the case of `COc1c(OC(C)C)cc(O)c2c(=O)cc(-c3ccc(O)cc3)oc12`, the inhibition was 15.4%. The value for `COc1ccc(-c2cc(=O)c3c(O)cc(O)cc3o2)cc1` was 48%; that for `COc1ccc(-c2cc(=O)c3c(O)cc(OC)cc3o2)cc1` was 54.8%; that for `O=c1c(O)c(-c2ccc(O)cc2)oc2cc(O)c(O)c(O)c12` was 97.2%. `COc1cc(O)c2c(=O)cc(-c3ccccc3)oc2c1OC` gave an inhibition of 9.8%. `COc1cc2oc(-c3ccccc3)cc(=O)c2c(OC)c1OC` registered an inhibition of 29.8%.

For the compound `COc1cc(-c2oc3cc(O)ccc3c(=O)c2O)ccc1O`, the inhibition was 52.7%. On to `O=c1c(O)c(-c2ccccc2)oc2cc(O)cc(O)c12`, for which the inhibition was found to be 42.1%. Regarding `CC(C)Oc1ccc(-c2cc(=O)c3c(O)c(O)c(OC(C)C)cc3o2)cc1`, the inhibition turned out to be 18%. With `O=c1cc(-c2ccc(O)c(O)c2)oc2c(O)c(O)cc(O)c12` the figure was 31.3%.

`COc1c(O)cc2oc(-c3ccc(O)cc3)cc(=O)c2c1O` returned an inhibition of 23.3%. Regarding `O=c1c(O)c(-c2c(O)cccc2O)oc2cc(O)cc(O)c12`, the inhibition worked out at 21.3%. Regarding `O=c1cc(-c2ccccc2)oc2cc(O)c(O)c(O)c12`, the inhibition turned out to be 95%. The value for `O=c1cc(-c2ccccc2)oc2c(O)c(O)cc(O)c12` was 36.9%; that for `COc1ccc(-c2cc(=O)c3ccc(O)cc3o2)cc1` was 13.6%. The compound `COc1cc2oc(-c3ccc(O)cc3)cc(=O)c2c(O)c1OC` showed an inhibition of 50.9%. The compound `COc1c(O)cc2oc(-c3ccccc3)cc(=O)c2c1OC` showed an inhibition of 32.7%. Turning to `O=c1cc(-c2ccc(O)c(O)c2)oc2cc(O)c(O)c(O)c12`, the inhibition was found to be 91.7%. The value for `O=c1c(O)c(-c2ccc(O)cc2O)oc2cc(O)cc(O)c12` was 40.5%. In turn, `O=c1c(O)c(-c2ccc(O)cc2)oc2cc(O)cc(O)c12` returned an inhibition of 72.6%. `O=c1c(O)c(-c2cc(O)c(O)c(O)c2)oc2cc(O)ccc12` yielded an inhibition of 87.5%.

`O=c1c(O)c(-c2ccc(O)c(O)c2)oc2cc(O)cc(O)c12` registered an inhibition of 41.4%. For `COc1ccc(-c2oc3cc(O)cc(O)c3c(=O)c2O)cc1`, the inhibition turned out to be 64.6%. `O=c1c(O)c(-c2ccc(O)c(O)c2)oc2c(O)c(O)cc(O)c12` showed an inhibition of 85.1%.

`CC(=O)Oc1ccc(-c2cc(=O)c3c(OC(C)=O)cc(OC(C)=O)cc3o2)cc1` yielded an inhibition of 24.7%. With `COc1c(O)cc(O)c2c(=O)cc(-c3ccccc3)oc12` the figure was 36.8%; with `COc1cc(O)c2c(=O)c(OC)c(-c3ccc(OC)c(OC)c3)oc2c1`, 9.2%; with `O=c1c(O)c(-c2ccccc2O)oc2cc(O)cc(O)c12`, 28%. The compound `CC(C)Oc1ccc(-c2cc(=O)c3c(O)c(O)c(OC(C)C)c(O)c3o2)cc1` returned an inhibition of 46.2%. The compound `COc1cccc(O)c1-c1cc(=O)c2c(O)c(OC)c(OC)c(OC)c2o1` displayed an inhibition of 18%. The value for `COc1ccc(-c2cc(=O)c3c(O)c(O)c(OC)c(O)c3o2)cc1` was 39.1%. Regarding `COc1cccc(OC)c1-c1cc(=O)c2c(O)c(OC)c(OC)c(OC)c2o1`, the inhibition was determined as 5.4%. In the case of `O=c1cc(-c2ccccc2)oc2c(O)c(OCc3ccccc3)cc(O)c12`, the inhibition worked out at 19%. Regarding `COc1ccc(-c2oc3cc(O)cc(O)c3c(=O)c2O)cc1O`, the inhibition was determined as 59.7%.

In turn, `O=c1cc(-c2ccccc2)oc2cc(OCc3ccccc3)cc(O)c12` came in with an inhibition of 34.9%. Compound `COc1cc(O)c2c(=O)c(O)c(-c3ccc(O)c(O)c3)oc2c1` registered an inhibition of 50.8%. Take `O=c1cc(-c2ccccc2O)oc2c(O)c(O)cc(O)c12`: the inhibition stood at 67.7%. With `CC(=O)Oc1cc2oc(-c3ccccc3)cc(=O)c2c(OC(C)=O)c1OC(C)=O`, the inhibition stood at 71.4%.

For the origin of these results see ChEMBL document CHEMBL3045184, “3D-QSAR studies of natural flavonoid compounds as reverse transcriptase inhibitors” (Med Chem Res, 2012).
